Experimental findings from US6630494B2, “Phenyl-substituted 1,4-dihydropyridines” (Bayer Aktiengesellschaft, priority 1983, dated 2003) are described below.

The subject of data set [1] is DHP (PN-200 110) binding sites in rats' brain. Kind of data set: Binding affinity to DHP (PN 200-110) binding sites in rats' brain. Also on record: species or system rat. The settings on record: comparison of binding affinities rats' brain vs rats' heart (Ki heart / Ki brain). How it is done:
(§1) The binding affinities to PN 200-110 binding sites in rats' brains or rats' hearts are determined according to Rampe, D. R., Rutledge, A., Janis, R. A., Triggle, D. J.: Can. Journ. Physiol. Pharmacol. 65, (1987) 1452.
(§2) This selectivity exceeds that of the known cerebrally active Ca^2+-antagonistic dihydropyridines nimodipine and nicardipine. This is seen e.g. in the comparison of the binding affinities to DHP (PN-200 110) binding sites in rats' brain and rats' heart [cf. Rampe, D. R., Rutledge, A., Janis, R. A., Triggle, D. J., Can. Journ. Physiol. Pharmacol. 65 (1987), 1452].

The target in data set [2] is T1, DHP (PN-200 110) binding sites in rats' heart (Rattus norvegicus, UniProt P22002).
T1 construct: from tissue; host or cells: rat heart
Description: Binding affinity to DHP (PN 200-110) binding sites in rats' heart. The settings on record: PN 200-110 (DHP) binding sites. As to the method:
as §1, §2

T1 sequence (P22002 whole entry, other chains not shown): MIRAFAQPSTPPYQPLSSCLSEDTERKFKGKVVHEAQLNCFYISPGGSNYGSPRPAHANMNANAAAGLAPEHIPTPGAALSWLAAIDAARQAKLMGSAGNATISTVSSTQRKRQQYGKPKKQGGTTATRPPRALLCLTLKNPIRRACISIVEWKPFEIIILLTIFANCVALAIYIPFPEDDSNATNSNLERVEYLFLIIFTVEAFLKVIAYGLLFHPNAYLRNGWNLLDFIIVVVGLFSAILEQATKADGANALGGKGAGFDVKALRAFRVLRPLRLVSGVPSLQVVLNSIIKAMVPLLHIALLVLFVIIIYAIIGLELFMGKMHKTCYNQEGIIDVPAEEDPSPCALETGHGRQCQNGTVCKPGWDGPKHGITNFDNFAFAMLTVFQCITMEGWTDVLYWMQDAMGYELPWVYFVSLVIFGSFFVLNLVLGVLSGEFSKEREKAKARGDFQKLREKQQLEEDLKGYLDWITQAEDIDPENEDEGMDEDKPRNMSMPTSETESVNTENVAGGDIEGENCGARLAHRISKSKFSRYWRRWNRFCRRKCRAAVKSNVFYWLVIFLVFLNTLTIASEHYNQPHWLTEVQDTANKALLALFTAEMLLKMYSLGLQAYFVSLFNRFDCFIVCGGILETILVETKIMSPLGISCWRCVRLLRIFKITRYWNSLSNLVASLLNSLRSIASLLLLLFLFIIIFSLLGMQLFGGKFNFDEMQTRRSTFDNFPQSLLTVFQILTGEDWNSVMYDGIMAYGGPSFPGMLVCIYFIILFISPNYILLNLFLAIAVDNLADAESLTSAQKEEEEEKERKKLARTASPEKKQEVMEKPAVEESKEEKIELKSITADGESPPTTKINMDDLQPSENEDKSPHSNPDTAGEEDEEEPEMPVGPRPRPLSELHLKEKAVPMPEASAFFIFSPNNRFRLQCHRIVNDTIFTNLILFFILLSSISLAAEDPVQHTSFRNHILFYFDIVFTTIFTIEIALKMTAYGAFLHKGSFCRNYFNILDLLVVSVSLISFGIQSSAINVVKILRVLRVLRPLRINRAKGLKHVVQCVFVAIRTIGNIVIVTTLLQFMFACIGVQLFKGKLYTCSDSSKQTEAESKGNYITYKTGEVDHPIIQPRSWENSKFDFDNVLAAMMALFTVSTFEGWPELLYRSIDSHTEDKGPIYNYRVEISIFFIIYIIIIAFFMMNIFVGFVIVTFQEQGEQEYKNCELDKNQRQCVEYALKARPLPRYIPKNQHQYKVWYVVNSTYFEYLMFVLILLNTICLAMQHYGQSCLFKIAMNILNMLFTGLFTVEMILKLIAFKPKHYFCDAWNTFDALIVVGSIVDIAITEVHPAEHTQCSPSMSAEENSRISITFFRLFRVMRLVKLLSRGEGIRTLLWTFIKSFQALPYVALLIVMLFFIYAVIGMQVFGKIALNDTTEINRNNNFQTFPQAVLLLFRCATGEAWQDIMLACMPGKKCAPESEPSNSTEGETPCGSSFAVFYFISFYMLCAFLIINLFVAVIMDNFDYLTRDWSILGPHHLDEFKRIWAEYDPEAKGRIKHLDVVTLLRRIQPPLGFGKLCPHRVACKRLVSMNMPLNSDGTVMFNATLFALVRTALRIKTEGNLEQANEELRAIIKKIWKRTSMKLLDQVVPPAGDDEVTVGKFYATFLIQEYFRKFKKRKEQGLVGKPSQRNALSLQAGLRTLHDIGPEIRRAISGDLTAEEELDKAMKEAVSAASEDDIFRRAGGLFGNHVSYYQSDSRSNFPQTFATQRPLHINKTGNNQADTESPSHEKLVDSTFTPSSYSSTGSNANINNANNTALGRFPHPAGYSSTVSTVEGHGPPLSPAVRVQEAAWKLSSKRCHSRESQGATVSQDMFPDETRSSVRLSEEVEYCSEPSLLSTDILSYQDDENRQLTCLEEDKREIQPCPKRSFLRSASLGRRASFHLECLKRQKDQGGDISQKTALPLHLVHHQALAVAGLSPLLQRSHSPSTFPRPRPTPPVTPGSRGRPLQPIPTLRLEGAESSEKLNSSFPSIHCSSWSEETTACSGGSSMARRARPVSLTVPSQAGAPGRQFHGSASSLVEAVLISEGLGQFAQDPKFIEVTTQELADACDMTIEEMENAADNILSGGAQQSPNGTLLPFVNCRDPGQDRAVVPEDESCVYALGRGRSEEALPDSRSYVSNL
T1 sequence (P54290 25-944 partner limits assumed, other chains not shown): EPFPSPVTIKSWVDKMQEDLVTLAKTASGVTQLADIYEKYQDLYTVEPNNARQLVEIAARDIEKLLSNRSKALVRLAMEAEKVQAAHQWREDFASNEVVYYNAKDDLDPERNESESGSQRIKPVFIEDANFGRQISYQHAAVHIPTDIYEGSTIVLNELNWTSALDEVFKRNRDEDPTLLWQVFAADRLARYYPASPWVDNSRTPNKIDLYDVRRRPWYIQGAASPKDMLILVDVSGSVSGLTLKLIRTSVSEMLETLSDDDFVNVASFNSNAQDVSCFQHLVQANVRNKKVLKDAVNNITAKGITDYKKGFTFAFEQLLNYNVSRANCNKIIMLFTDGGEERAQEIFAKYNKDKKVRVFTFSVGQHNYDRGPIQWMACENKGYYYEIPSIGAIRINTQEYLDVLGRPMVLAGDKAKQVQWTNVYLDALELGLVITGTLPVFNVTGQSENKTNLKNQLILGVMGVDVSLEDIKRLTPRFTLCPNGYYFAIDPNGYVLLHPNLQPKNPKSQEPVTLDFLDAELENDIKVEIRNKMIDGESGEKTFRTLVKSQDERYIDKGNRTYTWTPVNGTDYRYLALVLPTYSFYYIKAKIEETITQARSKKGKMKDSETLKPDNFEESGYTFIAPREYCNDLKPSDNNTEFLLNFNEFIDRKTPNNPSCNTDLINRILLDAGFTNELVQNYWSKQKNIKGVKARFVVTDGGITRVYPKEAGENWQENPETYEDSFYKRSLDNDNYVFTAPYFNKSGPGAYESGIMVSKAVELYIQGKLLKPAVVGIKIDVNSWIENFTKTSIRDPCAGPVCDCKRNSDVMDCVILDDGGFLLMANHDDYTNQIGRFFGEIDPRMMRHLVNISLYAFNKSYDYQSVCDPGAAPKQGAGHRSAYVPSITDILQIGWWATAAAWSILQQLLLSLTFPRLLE
T1 sequence (P54290 945-1091 partner limits assumed, other chains not shown): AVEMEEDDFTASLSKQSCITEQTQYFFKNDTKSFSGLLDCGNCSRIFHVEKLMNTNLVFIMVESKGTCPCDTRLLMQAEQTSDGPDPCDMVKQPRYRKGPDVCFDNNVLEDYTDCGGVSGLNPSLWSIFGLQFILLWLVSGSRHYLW

On to `COCCOC(=O)C1=C(C)NC(C)=C(C(=O)OC(C)C)C1c1cccc(F)c1F` (racemic) [Example 9, (±) isopropyl 2-methoxyethyl 4-(2,3-difluorophenyl)-1,4-dihydro-2,6-dimethylpyridine-3,5-dicarboxylate], for which the melting point fell in the range of 135 to 136 °C.
Still for that read-out and setting: as for `COCCOC(=O)C1=C(C)NC(C)=C(C(=O)OC(C)C)C1c1c(F)cccc1F` (racemic) [Example 6, (±) isopropyl 2-methoxyethyl 4-(2,6-difluorophenyl)-1,4-dihydro-2,6-dimethylpyridine-3,5-dicarboxylate], the figure is 119 to 120 °C; as for `COCCOC(=O)C1=C(C)NC(C)=C(C(=O)OC2CCCC2)C1c1cccc(Cl)c1C#N` (racemic) [Example 46, (±) cyclopentyl 2-methoxyethyl 4-(2-cyano-3-chlorophenyl)-1,4-dihydro-2,6-dimethylpyridine-3,5-dicarboxylate], 128 to 130 °C.
The compound `COCCOC(=O)C1=C(C)NC(C)=C(C(=O)OC(C)C)C1c1ccc(F)c(F)c1` (racemic) [Example 18] showed a melting point of 78 °C. In addition, in data set [1], the Selectivity is listed as 3.4. Also, affinity in data set [2] was put at a Ki of 28 nM.
For the compound `COCCOC(=O)C1=C(C)NC(C)=C(C(=O)OC(C)C)C1c1cccc([N+](=O)[O-])c1` (centres unmarked) [Nimodipine, nimodipine, reference compound], in data set [2], the Ki is 4.6 nM. This lies in the single-digit nanomolar range.
Still for that read-out and setting: as for `COC(=O)C1=C(C)NC(C)=C(C(=O)OCCN(C)Cc2ccccc2)C1c1cccc([N+](=O)[O-])c1` (centres unmarked) [Nicardipine, nicardipine, reference compound], the figure is 14 nM.
`COCCOC(=O)C1=C(C)NC(C)=C(C(=O)OC(C)C)C1c1cccc(Cl)c1C#N` (racemic) [Example 15, (±) isopropyl 2-methoxyethyl 4-(3-chloro-2-cyanophenyl)-1,4-dihydro-2,6-dimethylpyridine-3,5-dicarboxylate] registered a Selectivity in data set [1] of 5.7. In data set [2], this compound had an inhibition constant Ki of 11.3 nM.
Take `COCCOC(=O)C1=C(C)NC(C)=C(C(=O)OC(C)(C)C)C1c1cccc(C#N)c1` (racemic) [Example 33, (±) tert-butyl 2-methoxyethyl 4-(3-cyanophenyl)-1,4-dihydro-2,6-dimethylpyridine-3,5-dicarboxylate]: the melting point lay within 108 to 109 °C. In addition, the Selectivity in data set [1] was 2.2. For the same compound, in data set [2], the Ki worked out at 7.9 nM.
On the same counts, the results for `COCCOC(=O)C1=C(C)NC(C)=C(C(=O)OC2CCCC2)C1c1cccc(C#N)c1Cl` (racemic) [Example 30, (±) cyclopentyl 2-methoxyethyl 4-(2-chloro-3-cyanophenyl)-1,4-dihydro-2,6-dimethylpyridine-3,5-dicarboxylate] are 119 to 120 °C, 4.7 and 8 nM.
Take `COCCOC(=O)C1=C(C)NC(C)=C(C(=O)OC(C)C)C1c1c(F)cccc1Cl` (racemic) [Example 3, (±) isopropyl 2-methoxyethyl 4-(2-chloro-6-fluorophenyl)-1,4-dihydro-2,6-dimethylpyridine-3,5-dicarboxylate]: the melting point lay within 57 to 59 °C.
On the same count and under the same terms, as for `COCCOC(=O)C1=C(C)NC(C)=C(C(=O)OC2CCCC2)C1c1cccc(C(F)(F)F)c1F` (racemic) [Example 36, (±) cyclopentyl 2-methoxyethyl 4-(2-fluoro-3-trifluoromethylphenyl)-1,4-dihydro-2,6-dimethylpyridine-3,5-dicarboxylate], the figure is 105 °C.
`COCCOC(=O)C1=C(C)NC(C)=C(C(=O)OC(C)C)C1c1cc(Cl)ccc1Cl` (racemic) [Example 12, (±) isopropyl 2-methoxyethyl 4-(2,5-dichlorophenyl)-1,4-dihydro-2,6-dimethylpyridine-3,5-dicarboxylate] displayed a melting point of 79 to 89 °C. In data set [1], this compound came in with a Selectivity of 10. The Ki in data set [2] was determined as 72 nM.
Compound `COCCOC(=O)C1=C(C)NC(C)=C(C(=O)OC)C1c1cccc(C(F)(F)F)c1F` (racemic) [Example 39, (±) 2-methoxyethyl methyl 4-(2-fluoro-3-trifluoromethylphenyl)-1,4-dihydro-2,6-dimethylpyridine-3,5-dicarboxylate] came in with a melting point of 128 °C.
Still for that read-out and setting: as for `COCCOC(=O)C1=C(C)NC(C)=C(C(=O)OC(C)C)C1c1cccc(C(F)(F)F)c1F` (racemic) [Example 27, (±) isopropyl 2-methoxyethyl 4-(2-fluoro-3-trifluoromethylphenyl)-1,4-dihydro-2,6-dimethylpyridine-3,5-dicarboxylate], the figure is 140 to 142 °C.
